One series has as its target JAK2 (Homo sapiens, UniProt O60674). Description: Human kinase selectivity screening: JAK2. Format: biochemical. The conditions noted are these: read-out: JAK2 pIC50 values (converted). The text has this: These kinases were chosen for general selectivity screening owing to their broad representation of the human kinome.

This is an account of results in PMC4207660, “Identification and Characterization of Hundreds of Potent and Selective Inhibitors of Trypanosoma brucei Growth from a Kinase-Targeted Library Screening Campaign” (PLoS Neglected Tropical Diseases, 2014).

Chain of JAK2 (O60674 whole entry): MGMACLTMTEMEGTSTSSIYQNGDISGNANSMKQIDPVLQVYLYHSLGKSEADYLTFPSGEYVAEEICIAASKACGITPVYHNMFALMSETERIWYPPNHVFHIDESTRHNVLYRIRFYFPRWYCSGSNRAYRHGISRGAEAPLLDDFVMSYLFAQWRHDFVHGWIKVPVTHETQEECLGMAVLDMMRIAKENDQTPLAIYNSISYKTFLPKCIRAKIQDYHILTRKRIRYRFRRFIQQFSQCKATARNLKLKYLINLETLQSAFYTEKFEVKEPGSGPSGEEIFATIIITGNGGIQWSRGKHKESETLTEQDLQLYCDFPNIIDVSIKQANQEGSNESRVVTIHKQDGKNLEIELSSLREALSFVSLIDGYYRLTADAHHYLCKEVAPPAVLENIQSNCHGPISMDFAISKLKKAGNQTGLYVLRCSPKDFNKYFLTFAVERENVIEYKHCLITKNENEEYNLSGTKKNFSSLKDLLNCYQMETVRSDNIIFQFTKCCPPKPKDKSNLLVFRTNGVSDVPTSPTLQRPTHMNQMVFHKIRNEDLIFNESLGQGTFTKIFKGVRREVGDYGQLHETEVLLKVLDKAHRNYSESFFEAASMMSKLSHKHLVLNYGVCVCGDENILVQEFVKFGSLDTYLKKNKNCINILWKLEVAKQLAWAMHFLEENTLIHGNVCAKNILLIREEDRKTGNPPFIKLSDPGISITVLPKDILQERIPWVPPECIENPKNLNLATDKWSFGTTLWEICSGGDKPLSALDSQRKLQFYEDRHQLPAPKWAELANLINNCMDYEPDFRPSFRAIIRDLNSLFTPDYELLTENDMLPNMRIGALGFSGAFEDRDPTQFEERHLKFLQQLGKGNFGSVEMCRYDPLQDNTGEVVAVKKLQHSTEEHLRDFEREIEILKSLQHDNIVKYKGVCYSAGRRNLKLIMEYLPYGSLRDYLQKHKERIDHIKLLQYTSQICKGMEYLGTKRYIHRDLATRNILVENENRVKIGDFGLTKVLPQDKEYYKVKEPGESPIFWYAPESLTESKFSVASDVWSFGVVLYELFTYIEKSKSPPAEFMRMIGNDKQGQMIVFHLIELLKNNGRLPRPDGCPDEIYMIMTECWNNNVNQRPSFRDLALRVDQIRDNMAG

With `Cn1cc(-c2cnc3[nH]cc(-c4cccc(C#N)c4)c3c2)cn1` [NEU-0001207], on JAK2, the IC50 is 794 nM. The PFI in the series “ChromlogD assay” was determined as 7.84.

Take `CCCCc1nc(Nc2cccc(C)c2)c2c(=O)[nH]ccc2n1` [NEU-0001191]: the IC50 at JAK2 was 251 nM. This molecule also came in with a PFI in “ChromlogD assay” of 8.54.

As to `O=C(Nc1ccc(-c2ccnc3[nH]ccc23)s1)C1(Cc2ccccc2)CCCNC1` (centres unmarked) [NEU-0001240], the IC50 at JAK2 is 501 nM. Further, in the series “ChromlogD assay”, the PFI is reported as 7.26.

As to `Cc1cc(Nc2cc(C3CC3)[nH]n2)nc(N2CCCCC2)n1` [NEU-0001127], at JAK2, the IC50 was 398 nM. Moreover, the PFI in “ChromlogD assay” is given as 6.13.

For `CN(C)Cc1ccc(-c2[nH]c3ncc(C#N)cc3c2-c2ccccc2)cc1` [NEU-0001206], the IC50 on JAK2 was 501 nM. In the series “ChromlogD assay”, this molecule had a PFI of 7.88.

As to `O=S1(=O)Cc2ccc(Nc3nccc(-c4ccc(F)cc4)n3)cc2C1` [NEU-0001142], the IC50 at JAK2 is 50.1 nM. In “ChromlogD assay”, this molecule yielded a PFI of 7.11.

In the case of `CCCNc1nc(Nc2cnn(C)c2)c2c(=O)[nH]ccc2n1` [NEU-0001187], the IC50 at JAK2 is 3.98 nM. In “ChromlogD assay”, this molecule yielded a PFI of 5.43.
